Laboratory results reported in the NIST ThermoML archive (doi:10.1016/j.fluid.2012.11.018).
± gives the expanded uncertainty stated by the source.

Assays:
[1] = refractive index (Na D-line) (dimensionless); conditions: 298.2 K; 101.33 kPa; Liquid; Standard Abbe refractometry
[2] = 298.2 K; 101.33 kPa; Liquid; Vibrating tube method

Row | SMILES | refractive index [1] | mass density [2] [kg/m3]
1 | CC1CN1 (stereo not given) [2-methylaziridine] | 1.4116 ± 0.0006 | 802.23 ± 0.8
2 | ClC(Cl)Cl [trichloromethane] | 1.4456 ± 0.0004 | 1480.34 ± 0.34
3 | O [water] | 1.333 ± 0.0004 | –
